According to US20200206198A1, “CFTR CHANNEL ACTIVATOR FOR USE IN THE TREATMENT AND/OR PREVENTION OF GLUTEN SENSITIVITY CONDITIONS” (priority 2017, published 2020):

How the values were obtained:
[1] = tested on: rhNBD1 and its double mutants F400A/E403A and P439A/P477A; experiment: Native polyacrylamide electrophoresis (BN-PAGE) of biotinylated peptide with rhNBD1; format: binding, human
Protocol: Peptide-protein interactions were further studied exploiting a different biochemical strategy: recombinant NBD1, both wild type and/or its mutants, were incubated at 4° C. for 30′ in 40 mM Tris pH 7.5 in the presence of the biotinylated P31-43 peptide unless otherwise indicated and resolved in native conditions by BN-PAGE (Novex, Invitrogen). The complexes were then blotted onto PVDF membrane in accordance with the manufacturer's instructions and the interacting partners were detected with streptavidin-HRP antibody (PerkinElmer).
e-f, Blue native PAGE western blotting of P31-43 and P57-68 biotinylated peptides in the presence of rhNBD1 (e), and of WT and double NBD1 mutants in the presence of biotinylated P31-43 (0. g, SPR analysis of 4QA peptide on rhNBD1 covalently bound to CMS sensor chip. h-i, treatment of Caco-2 cells with P31-43 or P31-43 modified in different Q or P positions. (h) Assessment in Ussing chambers of CFTR-dependent Cl^− secretion measured by forskolin-induced (Fsk) increase of the chloride current (Isc (μA/cm^2); quantification of the peak CFTR Inhibitor 172 (CFTRinh172)-sensitive Isc (ΔIsc). (i) Assessment of iodide efflux by SPQ fluorescent probe upon stimulation with forskolin (Fsk) expressed as percentage of CFTR function in the presence or absence of peptide challenge. […]

[2] = tested on: NOD mice transgenic for HLA DQ8 (NOD-DQ8); experiment: NOD-DQ8 mice orally challenged with gliadin; format: in vivo, mouse
Description: (§1) In the second model of gluten sensitivity, the Applicant resorted to non-obese diabetic (NOD) female mice, which spontaneously develop autoimmune type-1 diabetes (Maurano, F., et al. 2005).
(§2) BALB/c mice (background BALB/cAnNCrl) were purchased from Charles River (Varese, Italy). Three generation gluten-free diet (Mucedola srl, Milan), male and female, were challenged with gliadin for 4 weeks. […]
(§3) Chambers for mounting either transwell cell cultures or mouse tissue biopsies were obtained from Physiologic Instruments (model P2300, San Diego, Calif., USA). […] Shortcircuit current (expressed as Isc (μA/cm2)) and resistance were acquired or calculated using the VCC600 transepithelial clamp from Physiologic Instruments and the Acquire & Analyze 2.3 software for data acquisition (Physiologic Instruments), as previously described Tosco A, et al. 2016; Romani, L. et al. 2017).
(§4) ELISA analysis was performed on tissue samples using standard ELISA kits (R&D Systems) for IL-15, IL-17A, INFγ IL21, IL10, TGF-β. […] Samples were read in triplicate at 450 nm in a Microplate Reader (BioRad, Milan, Italy) using Microplate Manager 5.2.1 software. Values were normalized to protein concentration evaluated by Bradford analysis. […]

[3] = tested on: non-obese diabetic (NOD) female mice; experiment: NOD mice orally challenged with gliadin; format: in vivo, mouse
Description: as §1, §2, §3, §4

For “α-gliadin peptide LGQQQPFPPQQPY (SEQ ID 1), induces an enterocyte stress response (P31-43 sequence of alpha-gliadin)”, the “binding to native rhNBD1” value [1] was “bound to rhNBD1” and the “binding to rhNBD1 double mutants F400A/E403A and P439A/P477A” value [1] was “attenuated for both rhNBD1 mutants”.
For `CC(C)(C)c1cc(C(C)(C)C)c(NC(=O)c2c[nH]c3ccccc3c2=O)cc1O` [VX-770, N-(2,4-di-tert-butyl-5-hydroxyphenyl)-4-oxo-1,4-dihydroquinoline-3-carboxamide], the “effect on gliadin-induced increase of IFN-γ” value [2] was “counteracted the gliadin-induced increase of IFN-γ”, the “immunoprotective effects (IL-15, IL-17A, IFN-γ protein)” value ([3]; NOD mice challenged with gliadin after diabetes onset) was “immunoprotective effects of VX-770 were confirmed” and the “effect on gliadin-induced reduction in CFTR function” value ([3]; NOD mice, VX-770 i.p.) was “inhibitable”.
